Columns and labels:
Pro-neuropeptide Y [1] = target: Pro-neuropeptide Y (Homo sapiens, UniProt P01303)
Pro-neuropeptide Y [2] = target: Pro-neuropeptide Y (Rattus norvegicus, UniProt P07808)

## CC[C@H](C)[C@H](NC(=O)[C@H](Cc1ccc(O)cc1)NC(=O)[C@H](CCCNC(=N)N)NC(=O)[C@H](CCCNC(=N)N)NC(=O)[C@H](CC(C)C)NC(=O)[C@H](CC(=O)O)NC(=O)[C@H](C)NC(=O)[C@H](C)NC(=O)[C@H](Cc1ccc(O)cc1)NC(=O)[C@H](CCC(N)=O)NC(=O)[C@H](C)NC(=O)[C@H](CCSC)NC(=O)[C@H](CCC(N)=O)NC(=O)[C@H](CCC(=O)O)NC(=O)[C@@H]1CCCN1C(=O)[C@@H](NC(=O)[C@H](C)NC(=O)[C@H](CC(N)=O)NC(=O)[C@H](CC(=O)O)NC(=O)CNC(=O)[C@@H]1CCCN1C(=O)[C@H](Cc1ccc(O)cc1)NC(=O)[C@@H](NC(=O)[C@@H]1CCCN1C(=O)[C@H](CCC(=O)O)NC(=O)[C@H](CC(C)C)NC(=O)[C@@H]1CCCN1C(=O)[C@H](C)N)C(C)C)[C@@H](C)O)C(=O)N[C@@H](CC(N)=O)C(=O)N[C@@H](CCSC)C(=O)N[C@@H](CC(C)C)C(=O)N[C@H](C(=O)N[C@@H](CCCNC(=N)N)C(=O)N1CCC[C@H]1C(=O)N[C@@H](CCCNC(=N)N)C(=O)N[C@@H](Cc1ccc(O)cc1)C(N)=O)[C@@H](C)O [CAS_59763-91-6]
Pro-neuropeptide Y [1]
  Ki: 1.9 nM
Pro-neuropeptide Y [2]
  Ki: 0.3 nM

## CC[C@H](C)[C@H](NC(=O)[C@H](Cc1ccc(O)cc1)NC(=O)[C@H](CCCNC(=N)N)NC(=O)[C@H](CCCNC(=N)N)NC(=O)[C@H](CC(C)C)NC(=O)[C@H](CCC(N)=O)NC(=O)[C@@H](NC(=O)[C@H](CCC(=O)O)NC(=O)[C@H](Cc1ccc(O)cc1)NC(=O)[C@H](CCC(N)=O)NC(=O)[C@H](C)NC(=O)[C@H](CCCNC(=N)N)NC(=O)[C@H](CCC(N)=O)NC(=O)[C@H](CCC(=O)O)NC(=O)[C@H](Cc1c[nH]cn1)NC(=O)[C@@H](NC(=O)[C@H](C)NC(=O)[C@H](Cc1ccc(O)cc1)NC(=O)[C@H](CC(=O)O)NC(=O)CNC(=O)[C@@H]1CCCN1C(=O)[C@H](Cc1ccc(O)cc1)NC(=O)[C@H](CCSC)NC(=O)[C@@H]1CCCN1C(=O)[C@H](CCC(=O)O)NC(=O)[C@H](CC(C)C)NC(=O)[C@@H]1CCCN1C(=O)[C@H](C)N)[C@@H](C)O)[C@@H](C)O)C(=O)N[C@@H](CC(N)=O)C(=O)N[C@H](C(=O)N[C@@H](CC(C)C)C(=O)N[C@H](C(=O)N[C@@H](CCCNC(=N)N)C(=O)N1CCC[C@H]1C(=O)N[C@@H](CCCNC(=N)N)C(=O)N[C@@H](Cc1ccc(O)cc1)C(N)=O)[C@@H](C)O)[C@@H](C)O [NSC_41735]
Pro-neuropeptide Y [1]
  Ki: 139 nM
Pro-neuropeptide Y [2]
  Ki: 0.4 nM

## H-APLEPEYPGDNATPEQMAQYAAELRRYINMLTRPRY-NH2 [CAS_59763-91-6]
Pro-neuropeptide Y [1]
  Ki: 2.3 nM

— BindingDB's records for doi:10.1073/pnas.93.10.4661 (Amgen, 1996)
